Laboratory results from US20180230127A1 (PFIZER INC., priority 2015, published 2018).
Structures can show the parent of a compound that is named as a salt.

The compounds below were run against T1, human IRAK4 kinase domain (aa 154-460) (Homo sapiens, UniProt Q9NWZ3) (assay: IRAK4 Enzymatic DELFIA Assay). Details: 0.6 mM ATP (KM); 114 pM IRAK4 kinase domain; 200 nM substrate; 5% DMSO.
T1 construct: human IRAK4 kinase domain (aa 154-460; GenBank ID AF445802)
T1 sequence (Q9NWZ3 154-460): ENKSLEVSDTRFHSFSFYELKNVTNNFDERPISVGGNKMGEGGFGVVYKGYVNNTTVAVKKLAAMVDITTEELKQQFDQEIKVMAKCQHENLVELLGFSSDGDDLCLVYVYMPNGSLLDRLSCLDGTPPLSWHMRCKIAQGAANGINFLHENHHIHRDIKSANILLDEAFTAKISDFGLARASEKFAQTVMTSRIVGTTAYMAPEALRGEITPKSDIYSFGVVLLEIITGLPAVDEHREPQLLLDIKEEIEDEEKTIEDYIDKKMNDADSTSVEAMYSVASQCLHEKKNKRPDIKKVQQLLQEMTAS
Type: biochemical
Description: IRAK4 Enzymatic DELFIA Assay.
This is an in vitro assay to measure IRAK4 enzymatic activity utilizing the DELFIA (Dissociation-Enhanced Lanthanide Fluorescent Immunoassay, Perkin-Elmer) platform, with the human IRAK4 kinase domain (aa 154-460) construct to characterize IRAK4 inhibitor and control compounds at 0.6 mM ATP (KM). The final amount of enzyme in the assay is 114 pM IRAK4 kinase domain, final concentration of substrate is 200 nM, and final concentration of DMSO is 5%.
The test compound was solubilized in DMSO to a stock concentration of 30 mM. The dose response plates were prepared with a 2 mM primary compound concentration, and then diluted in DMSO in a four-fold series for a total of 10 data points. Compounds were prepared as a 20-fold multiple of the final in-assay concentration
To begin the assay, 45 μL of reaction mixture containing 20 mM HEPES pH=7.5, 5 mM MgCl2, 0.0025% Brij-35, […], 228 pM phosphorylated recombinant human IRAK4 kinase domain (aa 154-460; GenBank ID AF445802) were aliquoted into Ultra-Clear Polypropylene, 96-well, U-Bottom Plates (Corning Life Sciences). 5 μL of test compound from the dose-response plate was added to the reaction mixture and incubated for 15 minutes at room temperature. Then 50 μL of 20 mM HEPES pH=7.5, 5 mM MgCl2, 0.0025% Brij-35, 600 μM ATP, and 400 nM ERM-biotinylated peptide (AGAGRDKYKTLRQIR) were added to start the reaction. The reaction was incubated for 90 minutes at room temperature and stopped by the addition of 25 μL 0.5M EDTA.
100 μL of the reaction mixture was transferred to a streptavidin coated detection plate (EvenCoat Streptavidin Coated Plates, 96-Well, R&D Systems) and incubated for 30 minutes at room temperature. The plates were washed 4 times with 100 μL per well of PBS containing 0.05% Tween-20. Plates were then incubated with 50 μL per well of antibody cocktail of Anti-pERM antibody (Cell Signaling Technology) diluted 1:5000, plus Anti-Rabbit IgG EuN1 at 0.242 μg/ml (Perkin-Elmer Life Sciences) in a solution of 10 mM MOPS pH=7.5, 150 mM NaCl, 0.05% Tween-20, 0.02% NaN3, 1% BSA, 0.1% Gelatin for 45 minutes. The plates were washed 4× with 100 μL per well of PBS containing 0.05% Tween-20. Then 100 μL per well of DELFIA Enhancement Solution were added to the plate and then read on an EnVision Model 2103 using a 340 nm excitation wavelength and a 665 nm emission detection.

Compound	IC50
CC(C)Oc1cc2c(O[C@@H]3CCCN(C(=O)CC#N)C3)ccnc2cc1C(N)=O [Example 28, 4-{[(3R)-1-(cyanoacetyl)piperidin-3-yl]oxy}-6-(propan-2-yloxy)quinoline-7-carboxamide]	0.004 µM
Cc1cc(O[C@@H]2CCCN(C(=O)CC#N)C2)c2cc(OC(C)C)c(C(N)=O)cc2n1 [Example 29, (R)-4-((1-(2-cyanoacetyl)piperidin-3-yl)oxy)-6-isopropoxy-2-methylquinoline-7-carboxamide]	0.148 µM
COc1cc2c(O[C@@H]3CCCN(C(=O)CC#N)C3)ccnc2cc1C(N)=O [Example 30, (R)-4-((1-(2-cyanoacetyl)piperidin-3-yl)oxy)-6-methoxyquinoline-7-carboxamide]	0.028 µM
N#CCC(=O)N1CCC[C@@H](Oc2ccnc3cc(C(N)=O)c(OC(F)F)cc23)C1 [Example 31, 4-{[(3R)-1-(cyanoacetyl)piperidin-3-yl]oxy}-6-(difluoromethoxy) quinoline-7-carboxamide]	0.101 µM
CCOc1cc2c(O[C@@H]3CCCN(C(=O)CC#N)C3)ccnc2cc1C(N)=O [Example 32, 4-{[(3R)-1-(cyanoacetyl)piperidin-3-yl]oxy}-6-ethoxyquinoline-7-carboxamide]	0.035 µM
N#CCC(=O)N1CCC[C@@H](Oc2ccnc3cc(C(N)=O)c(OC4CCC4)cc23)C1 [Example 33, (R)-4-((1-(2-cyanoacetyl)piperidin-3-yl)oxy)-6-cyclobutoxyquinoline-7-carboxamide]	0.272 µM
CC(C)Oc1cc2c(O[C@@H]3CCCN(C(=O)CCC#N)C3)ccnc2cc1C(N)=O [Example 35]	0.266 µM
CC(C)Oc1cc2c(O[C@@H]3CCCN(C(=O)CC#N)C3)nccc2cc1C(N)=O [Example 36, 1-{[(3R)-1-(cyanoacetyl)piperidin-3-yl]oxy}-7-(propan-2-yloxy)isoquinoline-6-carboxamide]	0.005 µM
CC(C)Oc1cc2c(O[C@@H]3CCCN(C(=O)CC#N)C3)ncc(Cl)c2cc1C(N)=O [Example 37, 4-chloro-1-{[(3R)-1-(cyanoacetyl)piperidin-3-yl]oxy}-7-(propan-2-yloxy)isoquinoline-6-carboxamide]	0.04 µM
CC(C)Oc1cc2c(O[C@@H]3CCCN(C(=O)CC#N)C3)ncc(C#N)c2cc1C(N)=O [Example 38, 4-cyano-1-{[(3R)-1-(cyanoacetyl)piperidin-3-yl]oxy}-7-(propan-2-yloxy)isoquinoline-6-carboxamide]	0.162 µM
CC(C)Oc1cc2c(O[C@H]3CCN(C(=O)CC#N)C3)ccnc2cc1C(N)=O [Example 39, 4-{[(3S)-1-(cyanoacetyl)pyrrolidin-3-yl]oxy}-6-(propan-2-yloxy)quinoline-7-carboxamide]	0.156 µM
CC(C)Oc1cc2c(O[C@@H]3CCN(C(=O)CC#N)C3)ccnc2cc1C(N)=O [Example 40, 4-{[(3R)-1-(cyanoacetyl)pyrrolidin-3-yl]oxy}-6-(propan-2-yloxy)quinoline-7-carboxamide]	0.082 µM
CC(O)CN1CCC(Oc2nccc3cc(C(N)=O)c(OC(C)C)cc23)CC1 (stereo not shown) [Example 41, 1-{f[1-(2-hydroxypropyl)piperidin-4-yl]oxy}-7-(propan-2-yloxy)isoquinoline-6-carboxamide]	0.883 µM
Cc1cc(O[C@@H]2CCCN(C(=O)CO)C2)c2cc(OC(C)C)c(C(N)=O)cc2n1 [Example 42, 4-{[(3R)-1-(hydroxyacetyl)piperidin-3-yl]oxy}-2-methyl-6-(propan-2-yloxy)quinoline-7-carboxamide]	0.388 µM
CC(=O)N1CCCC(Oc2ccnc3cc(C(N)=O)c(OC(C)C)cc23)C1 (stereo not shown) [Example 43, 4-[(1-acetylpiperidin-3-yl)oxy]-6-(propan-2-yloxy)quinoline-7-carboxamide]	0.399 µM
CC(C)Oc1cc2c(OC3CCCN(S(C)(=O)=O)C3)ccnc2cc1C(N)=O (stereo not shown) [Example 45, 4-{[1-(methylsulfonyl)piperidin-3-yl]oxy}-6-(propan-2-yloxy)quinoline-7-carboxamide]	0.254 µM

Compound	IC50
CC(C)Oc1cc2c(O[C@@H]3CCCN(C(=O)[C@@H](N)CC#N)C3)ccnc2cc1C(N)=O [Example 46, 4-({(3R)-1-[(2S)-2-amino-3-cyanopropanoyl]piperidin-3-yl}oxy)-6-(propan-2-yloxy)quinoline-7-carboxamide trifluoroacetate]	0.097 µM
CC(C)Oc1cc2c(O[C@@H]3CCCN(C(=O)[C@H](N)CC#N)C3)ccnc2cc1C(N)=O [Example 48, 4-({(3R)-1-[(2R)-2-amino-3-cyanopropanoyl]piperidin-3-yl}oxy)-6-(propan-2-yloxy)quinoline-7-carboxamide trifluoroacetate]	0.299 µM
CC(C)Oc1cc2c(O[C@H]3CN(C(=O)CC#N)CC[C@@H]3C)nccc2cc1C(N)=O [Example 49, 1-{[(3R,4S)-1-(cyanoacetyl)-4-methylpiperidin-3-yl]oxy}-7-(propan-2-yloxy)isoquinoline-6-carboxamide]	0.029 µM
CC(C)Oc1cc2c(OC3CCN(C(=O)CC#N)CC3)nccc2cc1C(N)=O [Example 50, 1-{[1-(cyanoacetyl)piperidin-4-yl]oxy}-7-(propan-2-yloxy)isoquinoline-6-carboxamide]	0.514 µM
CC(C)Oc1cc2c(OC3CCN(C(=O)CO)CC3)nccc2cc1C(N)=O [Example 51, 1-{[1-(hydroxyacetyl)piperidin-4-yl]oxy}-7-(propan-2-yloxy)isoquinoline-6-carboxamide]	0.157 µM
CC(C)Oc1cc2c(O[C@H]3CN(C(=O)CC#N)CC[C@@H]3C)ccnc2cc1C(N)=O [Example 52, 4-{[(3R,4S)-1-(cyanoacetyl)-4-methylpiperidin-3-yl]oxy}-6-(propan-2-yloxy)quinoline-7-carboxamide]	0.065 µM
CC(C)Oc1cc2c(O[C@@H]3CCCNC3)nccc2cc1C(N)=O [Example 53, 1-[(3R)-piperidin-3-yloxy]-7-(propan-2-yloxy)isoquinoline-6-carboxamide hydrochloride]	0.043 µM
CC(C)Oc1cc2c(O[C@@H]3CCCNC3)ncc(Br)c2cc1C(N)=O [Example 54, 4-bromo-1-[(3R)-piperidin-3-yloxy]-7-(propan-2-yloxy)isoquinoline-6-carboxamide hydrochloride]	0.591 µM
CC(C)Oc1cc2c(O[C@@H]3CCCNC3)ncc(Cl)c2cc1C(N)=O [Example 55, 4-chloro-1-[(3R)-piperidin-3-yloxy]-7-(propan-2-yloxy)isoquinoline-6-carboxamide hydrochloride]	0.221 µM
Cc1cnc(O[C@@H]2CCCNC2)c2cc(OC(C)C)c(C(N)=O)cc12 [Example 56, 4-methyl-1-[(3R)-piperidin-3-yloxy]-7-(propan-2-yloxy)isoquinoline-6-carboxamide hydrochloride]	0.288 µM
CC(C)Oc1cc2c(OC3CCCNC3)cccc2cc1C(N)=O (stereo not shown) [Example 57, 3-isopropoxy-5-(piperidin-3-yloxy)-2-naphthamide hydrochloride]	0.04 µM
CC(C)Oc1cc2c(O[C@@H]3CCCNC3)ccnc2cc1C(N)=O [Example 58, (R)-4-(piperidin-3-yloxy)-6-(propan-2-yloxy)quinoline-7-carboxamide hydrochloride]	0.135 µM
CC(C)Oc1cc2c(O[C@@H]3CC[C@H](C)NC3)ccnc2cc1C(N)=O [Example 59, 4-{[(3R,6S)-6-methylpiperidin-3-yl]oxy}-6-(propan-2-yloxy)quinoline-7-carboxamide]	0.919 µM
CC(C)Oc1cc2c(OC3CCNCC3)nccc2cc1C(N)=O [Example 60, 1-(piperidin-4-yloxy)-7-(propan-2-yloxy)isoquinoline-6-carboxamide]	0.092 µM
CC(C)Oc1cc2c(OC3CCCNC3)nccc2cc1C(N)=O (stereo not shown) [Example 64, 1-(piperidin-3-yloxy)-7-(propan-2-yloxy)isoquinoline-6-carboxamide hydrochloride]	0.16 µM
